Measurements from US11166460B2, “α-amino acrylate microbicide, and preparation method therefor and uses thereof” (priority 2017, dated 2021).
Values after ≈ are worked out from the molar mass of the structure shown. Counter-ions that a name gives are not always drawn. Like-named read-outs stand apart in the source and are kept apart here.

How the values were obtained:
[1] = test system: Pellicularia sasakii; test: Fungicidal activity, fungi growth rate method, PS; assay type: cell-based; conditions: 50 μg/mL
[2] = test system: Cercospora arachidicola; test: Fungicidal activity, fungi growth rate method, CA; assay type: cell-based; conditions: 50 μg/mL; for inhibition at 50 µg/mL: Mycosphaerella arachidis
[3] = test system: Botrytis cinerea; test: Fungicidal activity, fungi growth rate method, BC; assay type: cell-based; conditions: 50 μg/mL; for inhibition at 50 µg/mL: Botrytis cinerea
[4] = test system: Rhizoctonia cerealis; test: Fungicidal activity, fungi growth rate method, RC; assay type: cell-based; conditions: 50 μg/mL; for inhibition at 50 µg/mL: Ceratobasidium cereale
[5] = test system: tobacco mosaic virus (TMV); test: Anti-TMV inducing activity (induction mode), tobacco seedlings; assay type: in vivo; conditions: for inhibition at 100 µg/mL: Tobacco mosaic virus
[6] = test system: Physalospora piricola; test: Fungicidal activity, fungi growth rate method, PP; assay type: cell-based; conditions: 50 μg/mL
[7] = test system: tobacco mosaic virus (TMV); test: Anti-TMV protective activity (protection mode), live friction inoculation on tobacco seedlings; assay type: in vivo; conditions: for inhibition at 100 µg/mL: Tobacco mosaic virus, read-out: Anti-TMV activity, Protection effect (inhibition)
[8] = test system: Alternaria solani; test: Fungicidal activity, fungi growth rate method, AS; assay type: cell-based; conditions: 50 μg/mL; for inhibition at 50 µg/mL: Alternaria solani
[9] = test system: Sclerotinia sclerotiorum; test: microbe, parasite or virus in culture; assay type: cell-based; conditions: for EC90 / inhibition at 50 µg/mL: Sclerotinia sclerotiorum; for EC90: read-out: EC90 against S. sclerotiorum in vitro
[10] = test system: tobacco mosaic virus (TMV); test: Anti-TMV curative activity (treatment mode), live friction inoculation on tobacco seedlings; assay type: in vivo; conditions: for inhibition at 100 µg/mL: Tobacco mosaic virus
[11] = test system: wheat Gibberella zeae; test: microbe, parasite or virus in culture; assay type: cell-based; conditions: for inhibition at 50 µg/mL: Fusarium graminearum
[12] = test system: tobacco mosaic virus (TMV); test: Anti-TMV inactivation activity (inactivation mode), compound mixed with TMV before inoculation of tobacco leaves; assay type: in vivo; conditions: for inhibition at 100 µg/mL: Tobacco mosaic virus, read-out: Anti-TMV activity, Inactivation effect (inhibition)
[13] = test system: Phytophthora infestans (Mont) de Bary; test: microbe, parasite or virus in culture; assay type: cell-based; conditions: for inhibition at 50 µg/mL: Phytophthora infestans
[14] = read-out: Fungicidal activity, inhibition, PS
[15] = read-out: Fungicidal activity, inhibition, CA
[16] = read-out: Fungicidal activity, inhibition, BC
[17] = read-out: Fungicidal activity, inhibition, RC
[18] = read-out: Anti-TMV activity, Induction effect (inhibition), 100 μg/mL, tobacco seedlings
[19] = read-out: Fungicidal activity, inhibition, PP
[20] = read-out: Fungicidal activity, inhibition, AS
[21] = 50 μg/mL, read-out: Fungicidal activity (inhibition) against SS: Sclerotinia sclerotiorum
[22] = 50 μg/mL, read-out: Fungicidal activity, inhibition, SS
[23] = read-out: Anti-TMV activity, Curative effect (inhibition), 100 μg/mL, tobacco seedlings, checked on seventh day
[24] = read-out: Fungicidal activity, inhibition, GZ
[25] = read-out: Fungicidal activity, inhibition, PI
[26] = read-out: Fungicidal activity (inhibition) against PS: Pellicularia sasakii
[27] = read-out: Fungicidal activity (inhibition) against CA: Cercospora arachidicola
[28] = read-out: Fungicidal activity (inhibition) against BC: Botrytis cinerea
[29] = read-out: Fungicidal activity (inhibition) against RC: Rhizoctonia cerealis
[30] = read-out: Fungicidal activity (inhibition) against PP: Physalospora piricola
[31] = read-out: Fungicidal activity (inhibition) against AS: Alternaria solani
[32] = read-out: Fungicidal activity (inhibition) against GZ: wheat Gibberella zeae
[33] = read-out: Fungicidal activity (inhibition) against PI: Phytophthora infestans (Mont) de Bary
[34] = 100 μg/mL, tobacco seedlings, checked on seventh day
[35] = 100 μg/mL, tobacco leaves, checked on seventh day
[36] = 100 μg/mL, tobacco seedlings, read-out: Anti-TMV activity, Induction effect (inhibition)

Row | Structure (SMILES) | inhibition at 50 µg/mL [1, 14] | inhibition at 50 µg/mL [2, 15] | inhibition at 50 µg/mL [3, 16] | inhibition at 50 µg/mL [4, 17] | inhibition at 100 µg/mL [5, 18] | inhibition at 50 µg/mL [6, 19] | melting point | inhibition at 100 µg/mL [7] | inhibition at 50 µg/mL [8, 20] | inhibition at 50 µg/mL [9, 21] | inhibition at 50 µg/mL [9, 22] | inhibition at 100 µg/mL [10, 23] | inhibition at 50 µg/mL [11, 24] | inhibition at 100 µg/mL [12] | inhibition at 50 µg/mL [13, 25] | also measured
1 | O=C(N/C(=C\c1ccccc1)C(=O)N1CCC(O)(c2ccc(Br)cc2)CC1)c1cccc([N+](=O)[O-])c1 [Compound 11, (Z)-N-[1-[[4-(4-bromophenyl)-4-hydroxy-1-piperidinyl]carbonyl]-2-phenylethenyl]-3-nitrobenzamide] | 8% | 25% | 12% | 24% | 33% | 21% | 128 to 129 °C | 5% | 24% | 100% | 100% | 78% | 34% | 71% | 14% | EC90 [9]: 127 µg/mL (≈ 232 µM)
2 | CC(C)(C)OC(=O)N1CCC(c2nc(/C=C3\N=C(c4ccccc4)OC3=O)cs2)CC1 [Compound 73] | 20% | 16% | 10% | 24% | 8% | 19% | 189 to 191 °C | 11% | 36% | 80 to 95% | 89% | 0% | 23% | 59% | 24% | 
3 | O=C(N/C(=C\c1ccco1)C(=O)N1CCC(O)(c2ccc(Br)cc2)CC1)c1ccccc1 [Compound 25, (Z)-N-[1-[[4-(4-bromophenyl)-4-hydroxy-1-piperidinyl]carbonyl]-2-(2-furanyl)ethenyl]benzamide] | 27% | 22% | 20% | 36% |  | 15% | 134 to 135 °C | 46% | 16% | 100% | 100% | 55% | 31% | 31% | 10% | inhibition at 50 µg/mL [1, 26]: < 30%; inhibition at 50 µg/mL [2, 27]: < 25%; inhibition at 50 µg/mL [3, 28]: ≤ 20%; inhibition at 50 µg/mL [4, 29]: 36%; inhibition at 50 µg/mL [6, 30]: < 20%; inhibition at 50 µg/mL [8, 31]: < 30%; EC90 [9]: 221 µg/mL (≈ 446 µM); inhibition at 50 µg/mL [11, 32]: < 45%; inhibition at 50 µg/mL [13, 33]: < 25%
4 | O=C(N/C(=C\c1cccs1)C(=O)N1CCC(O)(c2ccc(Br)cc2)CC1)c1ccccc1 [Compound 24, (Z)-N-[1-[[4-(4-bromophenyl)-4-hydroxy-1-piperidinyl]carbonyl]-2-(2-thienyl)ethenyl]benzamide] | 18% | 16% | 14% | 19% |  | 10% | 180 to 182 °C | 36% | 15% | 67% | 67% | 0% | 23% | 1% | 17% | inhibition at 50 µg/mL [1, 26]: < 30%; inhibition at 50 µg/mL [2, 27]: < 25%; inhibition at 50 µg/mL [3, 28]: ≤ 20%; inhibition at 50 µg/mL [4, 29]: < 20%; inhibition at 50 µg/mL [6, 30]: < 20%; inhibition at 50 µg/mL [8, 31]: < 30%; inhibition at 50 µg/mL [11, 32]: < 45%; inhibition at 50 µg/mL [13, 33]: < 25%
5 | CSC(=O)c1cccc2nnsc12 [BTH, Acibenzolar-S-Methyl, reference compound] |  |  |  |  |  |  |  |  |  |  |  |  |  |  |  | Anti-TMV activity, Induction effect (inhibition) ([5]; 100 μg/mL, tobacco seedlings): 96%; Anti-TMV activity, Protection effect (inhibition) [7, 34]: 76%; Anti-TMV activity, Curative effect (inhibition) [10, 34]: 50.00%; Anti-TMV activity, Inactivation effect (inhibition) [12, 35]: 63%
6 | CO/C=C(/C(=O)OC)c1ccccc1Oc1cc(Oc2ccccc2C#N)ncn1 [azoxystrobin, reference compound] |  |  |  |  |  |  |  |  |  |  |  |  |  |  |  | Fungicidal activity (inhibition) against PS: Pellicularia sasakii [1]: 92%; Fungicidal activity (inhibition) against CA: Cercospora arachidicola [2]: 81%; Fungicidal activity (inhibition) against BC: Botrytis cinerea [3]: 78%; Fungicidal activity (inhibition) against RC: Rhizoctonia cerealis [4]: 67%; Fungicidal activity (inhibition) against PP: Physalospora piricola [6]: 81%; Fungicidal activity (inhibition) against AS: Alternaria solani [8]: 79%; Fungicidal activity, inhibition, SS ([9]; 50 μg/mL): 100%; Fungicidal activity (inhibition) against GZ: wheat Gibberella zeae ([11]; 50 μg/mL): 100%; Fungicidal activity (inhibition) against PI: Phytophthora infestans (Mont) de Bary ([13]; 50 μg/mL): 91%
7 | CNCC(=O)N[C@@H](CO)C(=O)N[C@H]1[C@H](O)[C@@H](O)[C@H](n2ccc(N)nc2=O)O[C@@H]1C(N)=O [Ningnanmycin, ningnanmycin, reference compound] |  |  |  |  | 82% |  |  | 71% |  |  |  | 63% |  | 58% |  | Anti-TMV activity, Curative effect (inhibition) [10, 34]: 62%
8 | O=C(N/C(=C\c1ccccc1)C(=O)N1CCC(O)(c2ccc(Br)cc2)CC1)C1CCNCC1 (as salt: hydrochloride) [Compound 4, (Z)-N-[1-[[4-(4-bromophenyl)-4-hydroxy-1-piperidinyl]carbonyl]-2-phenylethenyl]-1-piperidine-4-carboxamide-hydrochloride] |  |  |  |  |  |  | 147 to 149 °C |  |  |  |  |  |  |  |  | 
9 | O=C(N/C(=C\c1ccccc1)C(=O)N1CCC(O)(c2ccc(Br)cc2)CC1)C1CCNCC1 [Compound 4, (Z)-N-[1-[[4-(4-bromophenyl)-4-hydroxy-1-piperidinyl]carbonyl]-2-phenylethenyl]-1-piperidine-4-carboxamide-hydrochloride] | 9% | 6% | 24% | 23% | 1% | 12% |  | 1% | 21% |  | 47% | 0% | 43% | 3% | 11% | 
10 | O=C(N/C(=C\c1ccccc1)C(=O)N1CCC(O)(c2ccc(Br)cc2)CC1)c1ccccc1 [Compound 76, (Z)-N-[1-[[4-(4-bromophenyl)-4-hydroxy-1-piperidinyl]carbonyl]-2-phenylethenyl]benzamide, reference compound] | 14% | 24% | 18% | 15% | 15% | 15% |  | 38% | 14% | 50% | 50% | 0% | 43% | 29% | 24% | inhibition at 50 µg/mL [1, 26]: 14%; inhibition at 50 µg/mL [2, 27]: 24%; inhibition at 50 µg/mL [3, 28]: 18%; inhibition at 50 µg/mL [4, 29]: 15%; inhibition at 50 µg/mL [6, 30]: 15%; inhibition at 50 µg/mL [8, 31]: 14%; inhibition at 50 µg/mL [11, 32]: 43%; inhibition at 50 µg/mL [13, 33]: 24%
11 | Cc1ccc(NC(=O)c2snnc2C)cc1Cl [TDL, Tiadinil, reference compound] |  |  |  |  |  |  |  |  |  |  |  |  |  |  |  | inhibition at 100 µg/mL [5, 36]: 73%; inhibition at 100 µg/mL [7, 34]: 32%; inhibition at 100 µg/mL ([10]; 100 μg/mL, tobacco seedlings, checked on seventh day, read-out: Anti-TMV activity, Curative effect (inhibition)): 49%; inhibition at 100 µg/mL [12, 35]: 55%
12 | NC(=O)c1ncn([C@@H]2O[C@H](CO)[C@@H](O)[C@H]2O)n1 [Ribavirin, ribavirin, reference compound] |  |  |  |  |  |  |  | 58% |  |  |  | 28% |  |  |  | inhibition at 100 µg/mL [5, 36]: 4%; inhibition at 100 µg/mL [12, 35]: 81%
